Read-outs that look alike come from different tables or passages of the source.
Experiments:
human SGLT1 = target: T1, human SGLT1 (Homo sapiens, UniProt P13866); test: SGLT1 in vitro assay: Na-dependent 14C-AMG uptake in CHO-K1 cells stably expressing human SGLT1; assay type: cell-based; conditions: for inhibition at 0.3 µM: read-out: SGLT1 % Inh @ 0.3 μM; for IC50: compounds of formula (I) where R0 is fluoro
T1 construct: expressed in transfected cells
T1 sequence (P13866 1-664): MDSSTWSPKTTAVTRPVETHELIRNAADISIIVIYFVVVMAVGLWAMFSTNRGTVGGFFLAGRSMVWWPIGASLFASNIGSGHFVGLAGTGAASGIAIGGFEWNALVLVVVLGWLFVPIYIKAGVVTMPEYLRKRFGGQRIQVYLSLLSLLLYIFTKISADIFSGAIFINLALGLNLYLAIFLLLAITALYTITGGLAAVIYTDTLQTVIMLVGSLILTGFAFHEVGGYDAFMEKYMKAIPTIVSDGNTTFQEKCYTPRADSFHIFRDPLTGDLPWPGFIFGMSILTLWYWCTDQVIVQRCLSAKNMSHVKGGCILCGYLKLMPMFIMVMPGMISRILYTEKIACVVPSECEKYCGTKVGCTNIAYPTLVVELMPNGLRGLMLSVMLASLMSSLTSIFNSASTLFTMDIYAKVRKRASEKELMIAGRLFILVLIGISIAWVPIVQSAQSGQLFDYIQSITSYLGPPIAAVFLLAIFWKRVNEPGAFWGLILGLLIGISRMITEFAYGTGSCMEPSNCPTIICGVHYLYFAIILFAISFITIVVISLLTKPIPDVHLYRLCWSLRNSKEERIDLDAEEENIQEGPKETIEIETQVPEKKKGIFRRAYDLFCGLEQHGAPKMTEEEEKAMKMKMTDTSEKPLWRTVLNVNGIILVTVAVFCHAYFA
In short: (§1)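 Sodium-dependent uptake of 14C-α-methyl-glucopyranoside ([…]) over 2 h at 37°C was counted by scintillation in stable human SGLT2- or SGLT1-CHO-K1 lines pretreated with 10 mM Na-butyrate. Compounds at 0.001–10 μM were preincubated for 10 min in pH 7.4 buffer with 137 mM NaCl; output is %-inhibition or IC50.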

human SGLT2 = target: T2, human SGLT2 (Homo sapiens, UniProt P31639); test: SGLT2 in vitro assay: Na-dependent 14C-AMG uptake in CHO-K1 cells stably expressing human SGLT2; assay type: cell-based; conditions: for inhibition at 0.3 µM: read-out: SGLT2 % Inh @ 0.3 μM; for IC50: compounds of formula (I) where R0 is fluoro
T2 construct: expressed in transfected cells
T2 sequence (P31639 1-672): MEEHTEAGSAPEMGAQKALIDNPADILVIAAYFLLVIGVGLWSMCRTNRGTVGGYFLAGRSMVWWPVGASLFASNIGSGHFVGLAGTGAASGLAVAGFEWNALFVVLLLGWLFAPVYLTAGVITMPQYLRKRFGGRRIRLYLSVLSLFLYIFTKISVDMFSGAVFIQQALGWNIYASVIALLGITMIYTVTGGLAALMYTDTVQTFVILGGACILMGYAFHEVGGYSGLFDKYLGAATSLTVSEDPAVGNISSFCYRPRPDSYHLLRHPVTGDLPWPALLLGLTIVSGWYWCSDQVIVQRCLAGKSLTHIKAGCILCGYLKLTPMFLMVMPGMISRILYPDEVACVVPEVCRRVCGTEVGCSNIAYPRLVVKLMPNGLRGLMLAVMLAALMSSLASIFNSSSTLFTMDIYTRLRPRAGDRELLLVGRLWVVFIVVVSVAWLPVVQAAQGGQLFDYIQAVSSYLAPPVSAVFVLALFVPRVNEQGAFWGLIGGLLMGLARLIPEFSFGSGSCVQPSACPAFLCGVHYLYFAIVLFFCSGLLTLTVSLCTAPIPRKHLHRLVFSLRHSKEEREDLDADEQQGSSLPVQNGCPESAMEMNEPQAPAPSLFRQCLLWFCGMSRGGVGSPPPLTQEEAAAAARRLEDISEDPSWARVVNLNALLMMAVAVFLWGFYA
In short: as §1

[1] = @ 0.3 μM, CHO-K1 cells stably expressing human SGLT1, 14C-AMG uptake
[2] = CHO-K1 cells stably expressing human SGLT1, 14C-AMG uptake
[3] = @ 0.3 μM, CHO-K1 cells stably expressing human SGLT2, 14C-AMG uptake
[4] = CHO-K1 cells stably expressing human SGLT2, 14C-AMG uptake
[5] = 0.3 μM, CHO-K1 cells expressing human SGLT1
[6] = 0.3 μM, CHO-K1 cells expressing human SGLT2

Structure (SMILES) | inhibition at 0.3 µM (human SGLT1; [1]) [%] | IC50 (human SGLT1; [2]) [nM] | inhibition at 0.3 µM (human SGLT2; [3]) [%] | IC50 (human SGLT2; [4]) [nM] | SGLT1 % Inh @ 0.3 μM (human SGLT1; [1]) [%] | SGLT2 % Inh @ 0.3 μM (human SGLT2; [3]) [%] | also measured
OC[C@H]1O[C@@H](c2cc(Cc3cc4ccccc4s3)c(Cl)cc2O)[C@H](O)[C@@H](O)C1(F)F [Compound 27, (2S,3R,4R,6R)-2-[5-(benzothiophen-2-ylmethyl)-4-chloro-2-hydroxy-phenyl]-5,5-difluoro-6-(hydroxymethyl)tetrahydropyran-3,4-diol] | 71.3 | 93 |  | 4.2 |  |  | 
C[C@]1(F)[C@H](O)[C@@H](O)[C@H](c2cc3c(c(Cc4ccc5c(c4)OCCO5)c2)OCC3)O[C@@H]1CO [Compound 19] |  |  |  |  |  |  | SGLT1 % Inh @ 0.3 μM (human SGLT1; [5]): 9.3%; SGLT2 % Inh @ 0.3 μM (human SGLT2; [6]): 73.5%
COc1cc(Cl)c(Cc2cc3ccccc3s2)cc1[C@@H]1O[C@H](CO)C(F)(F)[C@H](O)[C@H]1O [Compound 36, (2S,3R,4R,6R)-2-[5-(benzothiophen-2-ylmethyl)-4-chloro-2-methoxy-phenyl]-5,5-difluoro-6-(hydroxymethyl)tetrahydropyran-3,4-diol] | 56.6 | 221 | 48.6 | 4.3 |  |  | 
COc1cc(OC)c([C@@H]2O[C@H](CO)[C@@](C)(F)[C@H](O)[C@H]2O)cc1Cc1ccc2c(c1)OCCO2 [Compound 9, (2S,3R,4R,5S,6R)-2-[5-(2,3-dihydro-1,4-benzodioxin-6-ylmethyl)-2,4-dimethoxy-phenyl]-5-fluoro-6-(hydroxymethyl)-5-methyl-tetrahydropyran-3,4-diol] |  |  |  |  |  |  | inhibition at 0.3 µM (human SGLT1; [5]): 25.3%; inhibition at 0.3 µM (human SGLT2; [6]): 58.7%
COc1cc(C)c(Cc2ccc(OCF)cc2)cc1[C@@H]1O[C@H](CO)[C@@](C)(F)[C@H](O)[C@H]1O [Compound 24] |  |  |  |  |  |  | SGLT1 % Inh @ 0.3 μM (human SGLT1; [5]): 29.6%; SGLT2 % Inh @ 0.3 μM (human SGLT2; [6]): 77.1%
Cc1cc(OC(C)C)c([C@@H]2O[C@H](CO)C(F)(F)[C@H](O)[C@H]2O)cc1Cc1cc2ccccc2s1 [Compound 42] |  |  |  |  | 8.9 | 74.3 | 
COc1cc(Cl)c(Cc2ccc([C@@H]3CCOC3)cc2)cc1[C@@H]1O[C@H](CO)C(F)(F)[C@H](O)[C@H]1O [Compound 50] |  |  |  |  | 20.4 | 84.4 | 
CCOc1ccc(Cc2cc([C@@H]3O[C@H](CO)C(F)(F)[C@H](O)[C@H]3O)c(O)cc2C)cc1 [Compound 47, (2S,3R,4R,6R)-2-(5-(4-ethoxybenzyl)-2-hydroxy-4-methylphenyl)-5,5-difluoro-6-(hydroxymethyl)tetrahydro-2H-pyran-3,4-diol] | 47.9 | 250 | 61.2 | 1.8 |  |  | 
OC[C@H]1O[C@@H](c2cc(Cc3ccc4c(c3)OCCO4)c(Cl)cc2O)[C@H](O)[C@@H](O)C1(F)F [Compound 45, (2S,3R,4R,6R)-2-[4-chloro-5-(2,3-dihydro-1,4-benzodioxin-6-ylmethyl)-2-hydroxy-phenyl]-5,5-difluoro-6-(hydroxymethyl)tetrahydropyran-3,4-diol] | 81.7 | 49 | 82 | 1.4 |  |  | 

Now from value to molecule, other results behind:

inhibition at 0.3 µM (human SGLT1; [1]) [%] | IC50 (human SGLT1; [2]) [nM] | inhibition at 0.3 µM (human SGLT2; [3]) [%] | IC50 (human SGLT2; [4]) [nM] | SGLT1 % Inh @ 0.3 μM (human SGLT1; [1]) [%] | SGLT2 % Inh @ 0.3 μM (human SGLT2; [3]) [%] | Structure (SMILES) | also measured
71.8 | 112 | 89.7 | 2.6 |  |  | COc1cccc(Cc2cc([C@@H]3O[C@H](CO)C(F)(F)[C@H](O)[C@H]3O)c(O)cc2Cl)c1 [Compound 157] | 
65.2 | 122 | 85.5 | 4.5 |  |  | OC[C@H]1O[C@@H](c2cc(Cc3ccc(OCF)cc3)c(Cl)cc2O)[C@H](O)[C@@H](O)C1(F)F [Compound 116, (2S,3R,4R,6R)-2-(4-chloro-5-{[4-(fluoromethoxy)phenyl]methyl}-2-hydroxyphenyl)-5,5-difluoro-6-(hydroxymethyl)oxane-3,4-diol] | 
 |  |  |  | 26.3 | 94.7 | Cc1c(Cc2ccc3c(c2)CCCO3)cc([C@@H]2O[C@H](CO)C(F)(F)[C@H](O)[C@H]2O)c2c1CCO2 [Compound 103] | 
 |  |  |  | 31.6 | 62.3 | COc1cc(O)c([C@@H]2O[C@H](CO)C(F)(F)[C@H](O)[C@H]2O)cc1Cc1cc2c(s1)CCN(C#N)C2 [Compound 134] | 
 |  |  |  | 30.8 | 82.0 | N#CCOc1cc(Cl)c(Cc2cc3ccccc3s2)cc1[C@@H]1O[C@H](CO)C(F)(F)[C@H](O)[C@H]1O [Compound 51] | 
 |  |  |  | 12.1 | 78.9 | COc1cc(C#N)c(Cc2ccc(C3CC3)cc2)cc1[C@@H]1O[C@H](CO)C(F)(F)[C@H](O)[C@H]1O [Compound 169] | 
 |  |  |  | 30.3 | 77.2 | COc1cc(C)c(Cc2ccc(OC(F)(F)F)cc2)cc1[C@@H]1O[C@H](CO)C(F)(F)[C@H](O)[C@H]1O [Compound 101] | 
 |  |  |  | 21.6 | 60.1 | OC[C@H]1O[C@@H](c2cc(Cc3ccc4c(c3)OCCO4)c(Cl)c3c2CCO3)[C@H](O)[C@@H](O)C1(F)F [Compound 188] | 
 |  |  |  | 38.5 | 73.0 | CC(=O)N1CCc2sc(Cc3cc([C@@H]4O[C@H](CO)C(F)(F)[C@H](O)[C@H]4O)c(O)cc3Cl)cc2C1 [Compound 72] | 
 |  |  |  | 29.5 | 92.5 | COc1cc(Cl)c(Cc2ccc(OC(F)(F)F)cc2)cc1[C@@H]1O[C@H](CO)C(F)(F)[C@H](O)[C@H]1O [Compound 106] | 
 |  |  |  | 24.3 | 79.9 | CCc1ccc(Cc2cc([C@@H]3O[C@H](CO)C(F)(F)[C@H](O)[C@H]3O)c(O)cc2C#N)cc1 [Compound 175] | 
 |  |  |  | 39.3 | 87.4 | COc1c([C@@H]2O[C@H](CO)C(F)(F)[C@H](O)[C@H]2O)cc(Cc2ccc(C3CC3)cc2)c2c1CCO2 [Compound 183] | 
43.5 | 1030 | 81.1 | 4.5 |  |  | COc1cc(C)c(Cc2ccc(Cl)s2)cc1[C@@H]1O[C@H](CO)C(F)(F)[C@H](O)[C@H]1O [Compound 112] | 
83.4 | 88 | 91.1 | 12.2 |  |  | Cc1c(Cc2cc3ccccc3s2)cc([C@@H]2O[C@H](CO)C(F)(F)[C@H](O)[C@H]2O)c(O)c1C [Compound 60, (2S,3R,4R,6R)-2-(5-(benzo[b]thiophen-2-ylmethyl)-2-hydroxy-3,4-dimethylphenyl)-5,5-difluoro-6-(hydroxymethyl)tetrahydro-2H-pyran-3,4-diol] | 

— patent US20210238170A1, “5,5-Difluoro- and 5-Fluoro-5-Methyl-C-Glycoside Derivatives Useful As Dual SGLT1 / SGLT2 Modulators” (Janssen Pharmaceutica NV, priority 2018, published 2021)
